This is an account of results in paper PMC6856130, “Disrupting coupling within mycobacterial F-ATP synthases subunit ε causes dysregulated energy production and cell wall biosynthesis” (Scientific Reports, 2019).

Each structure is given as a SMILES string.

Experiment [1] concerns the target F-ATP synthase (subunit c) (Mycobacterium tuberculosis, UniProt A1KI93). The experiment is classed as biochemical.
The target of experiment [2] is T1, Mtε (F-ATP synthase subunit ε) (Mycobacterium tuberculosis, UniProt P9WPV1).
T1 construct: gene atpC; recombinant Mtε, 121 residues (N-terminal domain M1-E87, C-terminal domain I90-D121), 15N-labeled
T1 sequence (P9WPV1 whole entry, the tested form may be a part): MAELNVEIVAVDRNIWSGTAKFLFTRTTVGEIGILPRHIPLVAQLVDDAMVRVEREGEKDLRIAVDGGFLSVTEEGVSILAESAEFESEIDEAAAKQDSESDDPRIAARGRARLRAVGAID
It is filed as binding.

The target of experiment [3] is T2, F-ATP synthase (subunit ε) (Mycolicibacterium smegmatis, UniProt A0R1Z9).
T2 construct: gene atpC
Put plainly: NADH-driven ATP synthesis of inverted membrane vesicles. The experiment is classed as biochemical.

Experiment [4] addresses F-ATP synthase (subunit ε) (Mycobacterium tuberculosis, UniProt A1KI99). It is filed as biochemical.

F-ATP synthase (subunit c), sequence (A1KI93 whole entry): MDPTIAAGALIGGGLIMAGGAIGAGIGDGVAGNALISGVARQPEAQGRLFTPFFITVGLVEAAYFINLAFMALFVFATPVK
F-ATP synthase (subunit c), sequence (A1KI99 whole entry partner): as the sequence (P9WPV1 whole entry, the tested form may be a part) above
F-ATP synthase (subunit c), sequence (A1KI96 whole entry partner): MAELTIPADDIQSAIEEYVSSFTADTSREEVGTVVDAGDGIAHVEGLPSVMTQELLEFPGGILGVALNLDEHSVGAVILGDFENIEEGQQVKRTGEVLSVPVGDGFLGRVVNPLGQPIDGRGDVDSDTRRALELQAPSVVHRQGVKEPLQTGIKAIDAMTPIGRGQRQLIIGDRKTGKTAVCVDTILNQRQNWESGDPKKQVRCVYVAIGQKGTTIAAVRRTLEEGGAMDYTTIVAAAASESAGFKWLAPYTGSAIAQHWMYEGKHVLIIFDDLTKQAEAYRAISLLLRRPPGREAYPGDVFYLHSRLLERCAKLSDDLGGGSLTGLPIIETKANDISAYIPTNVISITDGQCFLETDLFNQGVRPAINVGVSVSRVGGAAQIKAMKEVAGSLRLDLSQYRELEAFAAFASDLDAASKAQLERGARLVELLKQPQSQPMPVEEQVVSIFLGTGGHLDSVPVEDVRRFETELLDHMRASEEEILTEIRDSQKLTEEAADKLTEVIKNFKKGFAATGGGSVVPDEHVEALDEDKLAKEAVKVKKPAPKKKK
F-ATP synthase (subunit c), sequence (A1KI98 whole entry partner): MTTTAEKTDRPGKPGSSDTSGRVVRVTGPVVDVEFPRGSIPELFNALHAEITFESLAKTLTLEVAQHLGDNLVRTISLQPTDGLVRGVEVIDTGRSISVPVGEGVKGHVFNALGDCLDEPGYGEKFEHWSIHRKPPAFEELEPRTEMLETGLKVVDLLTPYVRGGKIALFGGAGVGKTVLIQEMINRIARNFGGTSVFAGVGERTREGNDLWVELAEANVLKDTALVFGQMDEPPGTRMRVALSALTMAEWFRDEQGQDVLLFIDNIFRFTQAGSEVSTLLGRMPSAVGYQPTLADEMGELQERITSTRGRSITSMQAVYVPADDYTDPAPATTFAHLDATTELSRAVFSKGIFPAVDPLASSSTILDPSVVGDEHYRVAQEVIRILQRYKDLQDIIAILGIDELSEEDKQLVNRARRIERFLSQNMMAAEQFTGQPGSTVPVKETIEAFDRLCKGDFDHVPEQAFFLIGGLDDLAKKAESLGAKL
F-ATP synthase (subunit ε) (Mycobacterium tuberculosis, UniProt A1KI99), sequence (A1KI99 whole entry): as the sequence (P9WPV1 whole entry, the tested form may be a part) above
F-ATP synthase (subunit ε) (Mycobacterium tuberculosis, UniProt A1KI99), sequence (A1KI96 whole entry partner): as the sequence (A1KI96 whole entry partner) above
F-ATP synthase (subunit ε) (Mycobacterium tuberculosis, UniProt A1KI99), sequence (A1KI98 whole entry partner): as the sequence (A1KI98 whole entry partner) above
F-ATP synthase (subunit ε) (Mycobacterium tuberculosis, UniProt A1KI99), sequence (A1KI97 whole entry partner): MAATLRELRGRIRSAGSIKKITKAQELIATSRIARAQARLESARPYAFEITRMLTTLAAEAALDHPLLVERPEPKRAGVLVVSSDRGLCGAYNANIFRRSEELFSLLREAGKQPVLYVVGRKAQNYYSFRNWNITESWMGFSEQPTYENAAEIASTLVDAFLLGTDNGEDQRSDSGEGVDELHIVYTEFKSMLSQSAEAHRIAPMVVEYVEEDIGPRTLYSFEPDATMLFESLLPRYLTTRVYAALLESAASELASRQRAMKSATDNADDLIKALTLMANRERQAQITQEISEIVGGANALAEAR
F-ATP synthase (subunit ε) (Mycobacterium tuberculosis, UniProt A1KI99), sequence (A1KI93 whole entry partner): as the sequence (A1KI93 whole entry) above

A word on the IC50: it is the concentration needed to halve the response being measured. Low values mean greater potency, high ones weaker potency. In turn, `COc1nc2ccc(Br)cc2cc1[C@@H](c1ccccc1)[C@@](O)(CCN(C)C)c1cccc2ccccc12` [bedaquiline] displayed an IC50 in experiment [1] of 7.05 ± 1.32 nM.
As for `O=C(O[C@@H]1Cc2c(O)cc(O)cc2O[C@@H]1c1cc(O)c(O)c(O)c1)c1cc(O)c(O)c(O)c1` [epigallocatechin gallate], the “1H-15N HSQC NMR titration, Mtε:EGCG 1:2” value in experiment [2] is given as “gradual line broadening with increasing molar ratios were observed, which demonstrate binding of EGCG with Mtε”. The IC50 in experiment [3] stood at 155.6 ± 1.2 nM; in experiment [4], 2200 ± 300 nM.
